Reference: patent US6737383B1, “Herbicidal oxadiazolidines” (priority 1999, dated 2004)

Key:
bedstraw = test: Test B pre/postemergence bedstraw; format: in vivo, Galium aparine
In short: (§1)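 Test chemicals in a non-phytotoxic solvent mixture with surfactant were sprayed preemergence onto planted seeds and postemergence onto plants 2 to 18 cm tall (1- to 4-leaf stage). After twelve to sixteen days in a greenhouse, injury was visually rated against untreated controls from 0 (no effect) to 10 (complete control).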

blackgrass = test: Test B pre/postemergence blackgrass; format: in vivo, Alopecurus myosuroides
In short: as §1

surinam grass = test: Test B pre/postemergence surinam grass; format: in vivo, Brachiaria decumbens
In short: as §1

cocklebur = test: Test B pre/postemergence cocklebur; format: in vivo, Xanthium strumarium
In short: as §1

corn = test: Test B pre/postemergence corn; format: in vivo, Zea mays
In short: as §1

crabgrass = test: Test B pre/postemergence crabgrass; format: in vivo, Digitaria sanguinalis
In short: as §1

giant foxtail = test: Test B pre/postemergence giant foxtail; format: in vivo, Setaria faberii
In short: as §1

morningglory = test: Test B pre/postemergence morningglory; format: in vivo, Ipomoea hederacea
In short: as §1

pigweed = test: Test B pre/postemergence pigweed; format: in vivo, Amaranthus retroflexus
In short: as §1

rape = test: Test B pre/postemergence rape; format: in vivo, Brassica napus
In short: as §1

soybean = test: Test B pre/postemergence soybean; format: in vivo, Glycine max
In short: as §1

sugar beet = test: Test B pre/postemergence sugar beet; format: in vivo, Beta vulgaris
In short: as §1

velvetleaf = test: Test B pre/postemergence velvetleaf; format: in vivo, Abutilon theophrasti
In short: as §1

wheat = test: Test B pre/postemergence wheat; format: in vivo, Triticum aestivum
In short: as §1

wild oat = test: Test B pre/postemergence wild oat; format: in vivo, Avena fatua
In short: as §1

purple nutsedge = test: Test B pre/postemergence purple nutsedge; format: in vivo, Cyperus rotundus
In short: as §1

[1] = Preemergence, Rate 62 g/ha, scale of 0 to 10 where 0 is no effect and 10 is complete control
[2] = Preemergence, Rate 125 g/ha, scale of 0 to 10 where 0 is no effect and 10 is complete control
[3] = Preemergence, Rate 250 g/ha, scale 0 (no effect) to 10 (complete control)
[4] = Rate 500 g/ha, Preemergence, scale 0 to 10 (0 no effect, 10 complete control)
[5] = Postemergence, Rate 62 g/ha, scale of 0 to 10, 0 is no effect, 10 is complete control
[6] = Postemergence, Rate 125 g/ha, scale 0 to 10, 0 is no effect, 10 is complete control
[7] = Postemergence, Rate 500 g/ha, scale of 0 to 10 where 0 is no effect and 10 is complete control
[8] = Preemergence, Rate 62 g/ha, scale 0 to 10 (0 no effect, 10 complete control)
[9] = Preemergence, Rate 125 g/ha, scale 0 to 10, 0 is no effect, 10 is complete control
[10] = Preemergence, Rate 500 g/ha, scale of 0 to 10 where 0 is no effect and 10 is complete control
[11] = Rate 250 g/ha, Postemergence, scale of 0 to 10 where 0 is no effect and 10 is complete control

CC(C)N(C(=O)n1oc(=O)n(C(C)C2=NOCC2)c1=O)c1ccc(F)cc1F (racemic) [Compound 730]
Bedstraw plant response rating (bedstraw; [1]): 0 | Plant response rating, Bedstraw (bedstraw; [2]): 0 | Bedstraw plant response rating (bedstraw; [3]): 0 | Bedstraw plant response rating (bedstraw; [4]): 4 | Blackgrass plant response rating (blackgrass; [1]): 6 | Plant response rating, Blackgrass (blackgrass; [2]): 9 | Blackgrass plant response rating (blackgrass; [3]): 10 | Blackgrass plant response rating (blackgrass; [4]): 10 | B. signalgrass plant response rating (surinam grass; [1]): 0 | Plant response rating, B. signalgrass (surinam grass; [2]): 0 | B. signalgrass plant response rating (surinam grass; [3]): 7 | B. signalgrass plant response rating (surinam grass; [4]): 9 | Cocklebur plant response rating (cocklebur; [1]): 0 | Plant response rating, Cocklebur (cocklebur; [2]): 0 | Cocklebur plant response rating (cocklebur; [3]): 0 | Cocklebur plant response rating (cocklebur; [4]): 0 | Corn plant response rating (corn; [1]): 0 | Plant response rating, Corn (corn; [2]): 3 | Corn plant response rating (corn; [3]): 4 | Corn plant response rating (corn; [4]): 9 | Crabgrass plant response rating (crabgrass; [1]): 9 | Plant response rating, Crabgrass (crabgrass; [2]): 9 | Crabgrass plant response rating (crabgrass; [3]): 9 | Crabgrass plant response rating (crabgrass; [4]): 10 | Giant foxtail plant response rating (giant foxtail; [1]): 10 | Plant response rating, Giant foxtail (giant foxtail; [2]): 10 | Giant foxtail plant response rating (giant foxtail; [3]): 10 | Giant foxtail plant response rating (giant foxtail; [4]): 10 | Morningglory plant response rating (morningglory; [1]): 0 | Plant response rating, Morningglory (morningglory; [2]): 0 | Morningglory plant response rating (morningglory; [3]): 0 | Morningglory plant response rating (morningglory; [4]): 2 | Redroot pigweed plant response rating (pigweed; [1]): 6 | Plant response rating, Redroot pigweed (pigweed; [2]): 9 | Redroot pigweed plant response rating (pigweed; [3]): 10 | Redroot pigweed plant response rating (pigweed; [4]): 10 | Rape plant response rating (rape; [1]): 0 | Plant response rating, Rape (rape; [2]): 0 | Rape plant response rating (rape; [3]): 2 | Rape plant response rating (rape; [4]): 7 | Soybean plant response rating (soybean; [1]): 0 | Plant response rating, Soybean (soybean; [2]): 0 | Soybean plant response rating (soybean; [3]): 2 | Soybean plant response rating (soybean; [4]): 3 | Sugarbeets plant response rating (sugar beet; [1]): 0 | Plant response rating, Sugarbeets (sugar beet; [2]): 2 | Sugarbeets plant response rating (sugar beet; [3]): 4 | Sugarbeets plant response rating (sugar beet; [4]): 7 | Velvetleaf plant response rating (velvetleaf; [1]): 0 | Plant response rating, Velvetleaf (velvetleaf; [2]): 2 | Velvetleaf plant response rating (velvetleaf; [3]): 6 | Velvetleaf plant response rating (velvetleaf; [4]): 6 | Wheat plant response rating (wheat; [1]): 0 | Plant response rating, Wheat (wheat; [2]): 0 | Wheat plant response rating (wheat; [3]): 0 | Wheat plant response rating (wheat; [4]): 0 | Wild oats plant response rating (wild oat; [1]): 0 | Plant response rating, Wild oats (wild oat; [2]): 4 | Wild oats plant response rating (wild oat; [3]): 7 | Wild oats plant response rating (wild oat; [4]): 9 | Nutsedge plant response rating (purple nutsedge; [1]): 0 | Plant response rating, Nutsedge (purple nutsedge; [2]): 0 | Nutsedge plant response rating (purple nutsedge; [3]): 3 | Nutsedge plant response rating (purple nutsedge; [4]): 3

CC(=O)OCCCCn1c(=O)on(C(=O)N(c2ccccc2)C(C)C)c1=O [Compound 565]
Bedstraw plant response rating (bedstraw; [5]): 0 | Bedstraw plant response rating (bedstraw; [6]): 0 | Plant response rating, Bedstraw (bedstraw; [7]): 0 | Bedstraw plant response rating (bedstraw; [8]): 0 | Bedstraw plant response rating (bedstraw; [9]): 0 | Bedstraw plant response rating (0 to 10 scale) (bedstraw; Preemergence, Rate 250 g/ha): 0 | Bedstraw plant response rating (bedstraw; [10]): 0 | Blackgrass plant response rating (blackgrass; [5]): 0 | Blackgrass plant response rating (blackgrass; [6]): 0 | Plant response rating, Blackgrass (blackgrass; [7]): 0 | Blackgrass plant response rating (blackgrass; [8]): 0 | Blackgrass plant response rating (blackgrass; [9]): 0 | Blackgrass plant response rating (0 to 10 scale) (blackgrass; Preemergence, Rate 250 g/ha): 0 | Blackgrass plant response rating (blackgrass; [10]): 0 | Plant response rating, Blackgrass (blackgrass; [11]): 0 | B. signalgrass plant response rating (surinam grass; [5]): 0 | B. signalgrass plant response rating (surinam grass; [6]): 0 | Plant response rating, B. signalgrass (surinam grass; [7]): 0 | B. signalgrass plant response rating (surinam grass; [8]): 0 | B. signalgrass plant response rating (surinam grass; [9]): 0 | B. signalgrass plant response rating (0 to 10 scale, 0 is no effect, 10 is complete control) (surinam grass; Preemergence, Rate 250 g/ha): 0 | B. signalgrass plant response rating (surinam grass; [10]): 0 | Plant response rating, B. signalgrass (surinam grass; [11]): 0 | Cocklebur plant response rating (cocklebur; [5]): 0 | Cocklebur plant response rating (cocklebur; [6]): 0 | Plant response rating, Cocklebur (cocklebur; [7]): 2 | Cocklebur plant response rating (cocklebur; [8]): 0 | Cocklebur plant response rating (cocklebur; [9]): 0 | Cocklebur plant response rating (0 to 10 scale) (cocklebur; Preemergence, Rate 250 g/ha): 0 | Cocklebur plant response rating (cocklebur; [10]): 0 | Plant response rating, Cocklebur (cocklebur; [11]): 2 | Corn plant response rating (corn; [5]): 0 | Corn plant response rating (corn; [6]): 0 | Plant response rating, Corn (corn; [7]): 0 | Corn plant response rating (corn; [8]): 0 | Corn plant response rating (corn; [9]): 0 | Corn plant response rating (0 to 10 scale) (corn; Preemergence, Rate 250 g/ha): 0 | Corn plant response rating (corn; [10]): 0 | Plant response rating, Corn (corn; [11]): 0 | Crabgrass plant response rating (crabgrass; [5]): 0 | Crabgrass plant response rating (crabgrass; [6]): 0 | Plant response rating, Crabgrass (crabgrass; [7]): 3 | Crabgrass plant response rating (crabgrass; [8]): 0 | Crabgrass plant response rating (crabgrass; [9]): 0 | Crabgrass plant response rating (0 to 10 scale) (crabgrass; Preemergence, Rate 250 g/ha): 0 | Crabgrass plant response rating (crabgrass; [10]): 2 | Plant response rating, Crabgrass (crabgrass; [11]): 0 | Giant foxtail plant response rating (giant foxtail; [5]): 0 | Giant foxtail plant response rating (giant foxtail; [6]): 0 | Plant response rating, Giant foxtail (giant foxtail; [7]): 3 | Giant foxtail plant response rating (giant foxtail; [8]): 0 | Giant foxtail plant response rating (giant foxtail; [9]): 0 | Giant foxtail plant response rating (0 to 10 scale) (giant foxtail; Preemergence, Rate 250 g/ha): 0 | Giant foxtail plant response rating (giant foxtail; [10]): 2 | Plant response rating, Giant foxtail (giant foxtail; [11]): 0 | Morningglory plant response rating (morningglory; [5]): 3 | Morningglory plant response rating (morningglory; [6]): 5 | Plant response rating, Morningglory (morningglory; [7]): 9 | Morningglory plant response rating (morningglory; [8]): 0 | Morningglory plant response rating (morningglory; [9]): 0 | Morningglory plant response rating (0 to 10 scale) (morningglory; Preemergence, Rate 250 g/ha): 0 | Morningglory plant response rating (morningglory; [10]): 0 | Plant response rating, Morningglory (morningglory; [11]): 7 | Redroot pigweed plant response rating (pigweed; [5]): 0 | Plant response rating, Redroot pigweed (pigweed; [7]): 6 | Redroot pigweed plant response rating (pigweed; [8]): 0 | Redroot pigweed plant response rating (pigweed; [9]): 0 | Redroot pigweed plant response rating (0 to 10 scale) (pigweed; Preemergence, Rate 250 g/ha): 0 | Redroot pigweed plant response rating (pigweed; [10]): 9 | Plant response rating, Redroot pigweed (pigweed; [11]): 6 | Rape plant response rating (rape; [5]): 0 | Rape plant response rating (rape; [6]): 0 | Plant response rating, Rape (rape; [7]): 0 | Rape plant response rating (rape; [8]): 0 | Rape plant response rating (rape; [9]): 0 | Rape plant response rating (0 to 10 scale) (rape; Preemergence, Rate 250 g/ha): 0 | Rape plant response rating (rape; [10]): 0 | Plant response rating, Rape (rape; [11]): 0 | Soybean plant response rating (soybean; [5]): 2 | Plant response rating, Soybean (soybean; [7]): 3 | Soybean plant response rating (soybean; [8]): 0 | Soybean plant response rating (soybean; [9]): 0 | Soybean plant response rating (0 to 10 scale) (soybean; Preemergence, Rate 250 g/ha): 0 | Soybean plant response rating (soybean; [10]): 0 | Plant response rating, Soybean (soybean; [11]): 3 | Sugarbeets plant response rating (sugar beet; [5]): 0 | Plant response rating, Sugarbeets (sugar beet; [7]): 0 | Sugarbeets plant response rating (sugar beet; [8]): 0 | Sugarbeets plant response rating (sugar beet; [9]): 0 | Sugarbeets plant response rating (0 to 10 scale) (sugar beet; Preemergence, Rate 250 g/ha): 0 | Sugarbeets plant response rating (sugar beet; [10]): 0 | Plant response rating, Sugarbeets (sugar beet; [11]): 0 | Velvetleaf plant response rating (velvetleaf; [5]): 3 | Plant response rating, Velvetleaf (velvetleaf; [7]): 4 | Velvetleaf plant response rating (velvetleaf; [8]): 0 | Velvetleaf plant response rating (velvetleaf; [9]): 0 | Velvetleaf plant response rating (0 to 10 scale) (velvetleaf; Preemergence, Rate 250 g/ha): 0 | Velvetleaf plant response rating (velvetleaf; [10]): 0 | Plant response rating, Velvetleaf (velvetleaf; [11]): 4 | Wheat plant response rating (wheat; [5]): 0 | Plant response rating, Wheat (wheat; [7]): 0 | Wheat plant response rating (wheat; [8]): 0 | Wheat plant response rating (wheat; [9]): 0 | Wheat plant response rating (0 to 10 scale) (wheat; Preemergence, Rate 250 g/ha): 0 | Wheat plant response rating (wheat; [10]): 0 | Plant response rating, Wheat (wheat; [11]): 0 | Wild oats plant response rating (wild oat; [5]): 0 | Plant response rating, Wild oats (wild oat; [7]): 0 | Wild oats plant response rating (wild oat; [8]): 0 | Wild oats plant response rating (wild oat; [9]): 0 | Wild oats plant response rating (0 to 10 scale) (wild oat; Preemergence, Rate 250 g/ha): 0 | Wild oats plant response rating (wild oat; [10]): 0 | Plant response rating, Wild oats (wild oat; [11]): 0 | Nutsedge plant response rating (purple nutsedge; [6]): 0 | Plant response rating, Nutsedge (purple nutsedge; [7]): 0 | Nutsedge plant response rating (purple nutsedge; [8]): 0 | Nutsedge plant response rating (purple nutsedge; [9]): 0 | Nutsedge plant response rating (0 to 10 scale) (purple nutsedge; Preemergence, Rate 250 g/ha): 0 | Nutsedge plant response rating (purple nutsedge; [10]): 0 | Plant response rating, Nutsedge (purple nutsedge; [11]): 0
